Assays:
MDR PA108590 = assay: Time-kill assay, triple combination; type: cell-based, Pseudomonas aeruginosa
PA 114228 = assay: Checkerboard combination study / MIC; type: cell-based, Pseudomonas aeruginosa
[1] = system: MDR PA108590-challenged larvae; assay: Galleria mellonella infection model, efficacy; type: in vivo; settings: ceftazidime+avibactam+compound 2, 1.56+1.56+3.12 mg/kg
From the text: In vivo larvae-infection model.

[2] = system: MDR PA101885-challenged larvae; assay: Galleria mellonella infection model, efficacy; type: in vivo
Experimental: In vivo synergistic effects were determined using Galleria mellonella infection model, as previously described (20). Briefly, worms were purchased from The Worm Lady® Live Feeder (ON, Canada), stored in their natural habitat at 16° C., and used within 10 days of delivery. The worms (average weight of 250 mg) were used for tolerability and efficacy studies. Tolerability study was performed by injecting 10 μL of antimicrobial agents only at concentrations equivalent to 100 mg/kg or 200 mg/kg. The worms (ten in each group) were incubated at 37° C. and monitored for 96 h. For efficacy studies, the virulence and bacterial load required to kill 100% of the worms within 12-18 h (with no treatment) was first determined, which is approximately 5 CFU. Overnight grown culture of respective MDR P. aeruginosa isolate was standardized to 0.5 McFarland standard and diluted in PBS to a final concentration of 5×10^2CFU/mL. 10 μL of this solution (5 CFU) was injected into each worm and incubated for 3 h at 37° C. […] Worms treated with 10 μL PBS or high concentrations of test antibiotics served as negative and positive control, respectively. The worms were incubated at 37° C. in Petri dishes lined with filter paper and scored for survivability every 6 h for up to 48 h. This experiment was repeated to give a total of thirty worms (n=30) in each case. Survival data curves were plotted using Kaplan-Meier survival analysis.

PA108590 = assay: MIC / triple combination susceptibility; type: cell-based, Pseudomonas aeruginosa; settings: triple combination with avibactam and compound 2 (8 μM each); ceftazidime, aztreonam, meropenem
From the text: The diazabicyclooctane β-lactamase inhibitor, avibactam, is able to inhibit a wide range of serine β-lactamases (class A, C, and D) but not metallo-β-lactamases (class B) (50, 51).^50,51 However, the high concentration of avibactam required to neutralize the effects of β-lactamase enzymes in these phenotypes is indicative of concomitant permeability barriers in the isolates, such as reduced porin uptake. […] The results of this study are shown in (FIG. 6). All isolates were resistant to all three β-lactam antibiotics used for the study. […] As expected, the study with meropenem was slightly different from others.
Antimicrobial Susceptibility Assay. The in vitro antimicrobial activity of all compounds/antibiotics against a panel of bacteria was evaluated by microbroth dilution method in accordance with the Clinical and Laboratory Standards Institute (CLSI) guidelines. […]
Checkerboard Assay. […] After incubation, the plates were read on EMax® Plus microplate reader (Molecular Devices, Sunnyvale, Calif., USA) at 590 nm. MIC was recorded as wells with the lowest concentration of drugs with no bacterial growth. The fractional inhibitory concentration (FIC) for each antibiotic was calculated by dividing the MIC of the antibiotic in the presence of adjuvant by the MIC of the antibiotic alone. […]

PA 101243 = assay: Checkerboard combination study / MIC; type: cell-based, Pseudomonas aeruginosa; settings: PA 101243

Substance: 5-O-(Octylcyclam)-tobramycin.9TFA [Compound 2]
- bacterial counts lower than ceftazidime+avibactam (MDR PA108590; ceftazidime + avibactam + compound 2, after 3 h): > 2 Log
- time to sterilization of bacteria culture (MDR PA108590; triple combination ceftazidime + avibactam + compound 2, limit of detection 10 CFU/mL): ≤ 3 h
- reduction in total CFU/mL from original inoculum (MDR PA108590; triple combination ceftazidime + avibactam + compound 2, within 3 h): 6 Log
- MICCombination (2) (PA 114228; MIC of 2 combined with AZT): 4 µg/mL
- MICCombination (2) (PA 114228; MIC of 2 combined with CAZ): 16 µg/mL
- MICCombination (2) (PA 114228; MIC of 2 combined with CEF): 4 µg/mL
- MICCombination (2) (PA 114228; MIC of 2 combined with DOR): 4 µg/mL
- MICCombination (2) (PA 114228; MIC of 2 combined with MER): 8 µg/mL
- MICCombination (2) (PA 114228; MIC of 2 combined with PIP): 0.5 µg/mL
- FIC2 (PA 114228; with AZT): <0.0156
- FIC2 (PA 114228; with CAZ): <0.0625
- FIC2 (PA 114228; with CEF): <0.0156
- FIC2 (PA 114228; with DOR): <0.0156
- FIC2 (PA 114228; with MER): <0.0313
- FIC2 (PA 114228; with PIP): <0.0020
- survival of larvae ([1]; after 24 h): 100%
- survival of larvae ([1]; after 36 h): 95%
- mortality of larvae, monotherapy ([2]; aztreonam […], meropenem 37.5 mg/kg, compound 2 100 mg/kg, after 24 h): 100%
- activity by itself against MDR PA101885 ([2]; in vitro and in vivo): innately inactive
- survival of larvae ([2]; meropenem + compound 2, 25+25 mg/kg, after 24 h): 0%
- survival of larvae ([2]; meropenem + compound 2, 37.5+37.5 mg/kg, after 24 h): 85%
- potentiation of all three β-lactam antibiotics (PA108590): 128 fold
- MICCombination (2) (PA 101243; MIC of 2 combined with AZT): 2 µg/mL
- MICCombination (2) (PA 101243; MIC of 2 combined with CAZ): 1 µg/mL
- MICCombination (2) (PA 101243; MIC of 2 combined with CEF): 0.25 µg/mL
- MICCombination (2) (PA 101243; MIC of 2 combined with DOR): 0.25 µg/mL
- MICCombination (2) (PA 101243; MIC of 2 combined with MER): 0.5 µg/mL
- MICCombination (2) (PA 101243; MIC of 2 combined with PIP): 16 µg/mL
- FIC2 (PA 101243; with AZT): <0.0078
- FIC2 (PA 101243; with CAZ): <0.0039
- FIC2 (PA 101243; with CEF): <0.0010
- FIC2 (PA 101243; with DOR): <0.0010
- FIC2 (PA 101243; with MER): <0.0020
- FIC2 (PA 101243; with PIP): <0.0625
